Assay results published in publication PMC11162475, “Rule-based omics mining reveals antimicrobial macrocyclic peptides against drug-resistant clinical isolates” (Nature Communications, 2024).
≈ marks a conversion by molar mass, not a printed value.

Tests used:
[1] = tested on: Enterococcus faecalis OG1RF; assay: microbe, parasite or virus in culture; assay type: cell-based; settings: OG1RF, 20 h
In short: (§1)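 Broth microdilution in MHB with two-fold compound series, 37 °C for 20 h; growth read by OD600 to give MIC. Clinical isolates tested externally by a similar protocol.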

[2] = tested on: Klebsiella pneumoniae ATCC700603; assay: microbe, parasite or virus in culture; assay type: cell-based; settings: ATCC700603, 20 h
In short: as §1

[3] = tested on: Enterococcus faecalis 19-1; assay: microbe, parasite or virus in culture; assay type: cell-based; settings: 19-1, 20 h
In short: as §1

[4] = tested on: Acinetobacter baumannii 20-2; assay: microbe, parasite or virus in culture; assay type: cell-based; settings: 20-2, 20 h
In short: as §1

[5] = tested on: Klebsiella pneumoniae 15-1; assay: microbe, parasite or virus in culture; assay type: cell-based; settings: 15-1, 20 h
In short: as §1

[6] = tested on: Staphylococcus aureus ATCC25923; assay: microbe, parasite or virus in culture; assay type: cell-based; settings: ATCC25923, 20 h
In short: as §1

Bacillus subtilis 168 = assay: microbe, parasite or virus in culture; assay type: cell-based; settings: 168, 20 h
[7] = tested on: Enterococcus faecium MCC2763; assay: microbe, parasite or virus in culture; assay type: cell-based; settings: MCC2763, 20 h
In short: as §1

[8] = tested on: Acinetobacter baumannii 20-1; assay: microbe, parasite or virus in culture; assay type: cell-based; settings: 20-1, 20 h
In short: as §1

[9] = tested on: Micrococcus luteus DSM1790; assay: microbe, parasite or virus in culture; assay type: cell-based; settings: DSM1790, 20 h
LRSA 20-1 = assay: microbe, parasite or virus in culture; assay type: cell-based, Staphylococcus aureus; settings: 20 h
Procedure: (§2) For MIC determination, Staphylococcus aureus ATCC25923, Bacillus subtilis 168, Micrococcus luteus DSM1790, Enterococcus faecalis OG1RF, Enterococcus faecium MCC2763, Escherichia coli DH5α and Pseudomonas aeruginosa PAO1 were used as indicator strains. Nisin and vancomycin were used as positive controls. A dilution series of massatide A, massatide B, vancomycin (16, 8, 4, 2, 1, 0.5, 0.25, 0.125, 0.0625, 0.0313 μg/mL) and sistertide A1, kebanetide A1, kebanetide A2, nisin (64, 32, 16, 8, 4, 2, 1, 0.5, 0.25, 0.125 μg/mL) were prepared in 96-well plate from 1–10th column. The indicator strains were added to the compound-containing well. The indicator strain culture with no antibiotics was prepared in the 11th column. The 12th column was filled with 200 μL empty MHB medium. The 96-well plate was incubated at 37 °C for 20 h (30 °C for M. luteus and B. subtilis). The OD600 was detected on MULTISKAN Sky (Thermo Scientific) and MIC values were determined. The MIC values of clinical isolates were determined by Sichuan Primed Shines Bio-tech Co., Ltd. (China) following similar protocol. Levofloxacin was used as a positive control.

VMSA ATCC700699 = assay: microbe, parasite or virus in culture; assay type: cell-based, Staphylococcus aureus; settings: ATCC700699, 20 h
Procedure: as §2

MRSA ATCC33591 = assay: microbe, parasite or virus in culture; assay type: cell-based, Staphylococcus aureus; settings: ATCC33591, 20 h
Procedure: as §2

MRSA ATCC43300 = assay: microbe, parasite or virus in culture; assay type: cell-based, Staphylococcus aureus; settings: ATCC43300, 20 h
Procedure: as §2

VMSA ATCC700788 = assay: microbe, parasite or virus in culture; assay type: cell-based, Staphylococcus aureus; settings: ATCC700788, 20 h
Procedure: as §2

MRSA 15-1 = assay: microbe, parasite or virus in culture; assay type: cell-based, Staphylococcus aureus; settings: 15-1, 20 h
Procedure: as §2

[10] = 300 μl of water added to 0.9 mg solid; visual, not quantitative
[11] = Thermal stability of massatide A
Procedure: Thermal stability of massatide A
A solution of Massatide A (3.2 mg/mL) was prepared in 1.5 mL Eppendorf tube. These
tubes were then incubated at 50 °C and 70 °C in a dry bath for 72 hours. After incubation,
1 μ L samples were taken and diluted with water for UPLC -LRMS analysis. […]

[12] = tested on: Staphylococcus aureus ATCC25923; assay: Kirby-Bauer assay, zone of inhibition (agar well); assay type: cell-based; settings: S. aureus ATCC25923; 10 μL of 3.2 mg/mL DMSO stock in well of soft LB agar, 37 °C, 20 h
Procedure: (§3) The stock solution of massatide A (1) and B (1a) 3.2 mg/mL were prepared in DMSO. 40 μL overnight culture of Micrococcus luteus DSM1790 was added to 20 mL soft Luria-Bertani agar (1% agar), and then poured into a plate. 10 μL tip was used to make two wells on the plate. 10 μL massatide A (1) or B (1a) solution was added in one of the wells, while in the other well, 10 μL DMSO was added as a negative control. The plates were incubated at 30 °C for 20 h to observe the zone of inhibition. Staphylococcus aureus ATCC25923 was also used to observe the inhibition zone using a similar method. The only difference is incubating at 37 °C. Stock solutions of sistertide A1, kebanetide A1 and A2 were 3.2 mg/mL, 1.6 mg/mL and 1.6 mg/mL, respectively. The method to observe the activity of these compounds individually was the same as that of massatide.

[13] = tested on: Micrococcus luteus DSM1790; assay: Kirby-Bauer assay, zone of inhibition (agar well); assay type: cell-based; settings: M. luteus DSM1790; 10 μL DMSO stock (3.2 or 1.6 mg/mL) in well of soft LB agar, 30 °C, 20 h
Procedure: as §3

In the case of `C/C=C1\NC(=O)C(N(C)C)C(C)SC[C@@H](C(=O)N[C@H](CC)C(=O)N[C@H](C(=O)N[C@@H](C)C(=O)N[C@H](C)C(=O)N[C@@H](Cc2ccccc2)C(=O)N[C@@H](C)C(=O)NC2C(=O)NCC(=O)N[C@@H](Cc3ccc(O)cc3)C(=O)N[C@@H](Cc3ccccc3)C(=O)N[C@H](C)C(=O)N/C=C\SC2C)C(C)C)NC(=O)[C@@H]2CCCN2C(=O)[C@H](C(C)C)NC1=O` (stereo partly shown) [Massatide A (1), massatide A], the MIC [1] was 4 µg/mL (≈ 2.45 µM), the MIC [2] was over 64 µg/mL and the MIC [3] was 4 µg/mL (≈ 2.45 µM). The MIC [4] was 64 µg/mL (≈ 39.1 µM), the MIC [5] was over 64 µg/mL and the MIC [6] was 0.5 µg/mL (≈ 0.306 µM). The MIC (Bacillus subtilis 168) was 2 µg/mL (≈ 1.22 µM), the MIC [7] was 2 µg/mL (≈ 1.22 µM) and the MIC [8] was 64 µg/mL (≈ 39.1 µM). For the same molecule, the MIC [9] was 0.06 µg/mL (≈ 0.0367 µM), the MIC (LRSA 20-1) was 0.25 µg/mL (≈ 0.153 µM) and the MIC (VMSA ATCC700699) was 4 µg/mL (≈ 2.45 µM). For the same molecule, the MIC (MRSA ATCC33591) was 1 µg/mL (≈ 0.612 µM), the MIC (MRSA ATCC43300) was 0.25 µg/mL (≈ 0.153 µM) and the MIC (VMSA ATCC700788) was 4 µg/mL (≈ 2.45 µM). The MIC (MRSA 15-1) was 2 µg/mL (≈ 1.22 µM), the “water solubility (observation)” value [10] was “not fully dissolved” and the “stability under high temperatures” value ([11]; 3.2 mg/mL, 50 °C and 70 °C, dry bath, 72 hours, UPLC-LRMS) was “highly stable”. For the same molecule, the “changes in retention time or m/z after incubation” value ([11]; 72 h incubation under 70 ℃, 3.2 mg/mL, UPLC-LRMS) was “No changes”, the “changes in bioactivity after incubation” value ([11]; time-course activity analysis, incubation at 50 ℃ and 70 ℃ up to 72 h) was “no obvious changes” and the “inhibitory activity (zone of inhibition)” value [12] was “strong inhibitory activity”. For the same molecule, the “inhibitory activity (zone of inhibition)” value [13] was “strong inhibitory activity”.
